Assay results as given in patent publication US9920061B2, “Imidazo[1,5-A]pyrimidinyl carboxamide compounds and their use in the treatment of medical disorders” (Lysosomal Therapeutics Inc., priority 2016, dated 2018).
In brackets after ≈: the same amount, converted by molar mass.

How the values were obtained:
[1] = Compound solubility in water; assay type: physicochemical; details: in water
[2] = target: T1, glucocerebrosidase (Gcase) (Homo sapiens, UniProt P04062); experiment: Glucocerebrosidase (Gcase) activation assay, 4-methylumbelliferyl-beta-D-glucopyranoside substrate, with saposin C; assay type: biochemical; details: for activation at 0.1 µM: test compound at 0.1 μM, read-out: Percent Gcase Activation, 0.1 μM Test Compound; for activation at 1 µM: test compound at 1.0 μM, read-out: Percent Gcase Activation, 1 μM Test Compound
T1 sequence (P04062 40-536): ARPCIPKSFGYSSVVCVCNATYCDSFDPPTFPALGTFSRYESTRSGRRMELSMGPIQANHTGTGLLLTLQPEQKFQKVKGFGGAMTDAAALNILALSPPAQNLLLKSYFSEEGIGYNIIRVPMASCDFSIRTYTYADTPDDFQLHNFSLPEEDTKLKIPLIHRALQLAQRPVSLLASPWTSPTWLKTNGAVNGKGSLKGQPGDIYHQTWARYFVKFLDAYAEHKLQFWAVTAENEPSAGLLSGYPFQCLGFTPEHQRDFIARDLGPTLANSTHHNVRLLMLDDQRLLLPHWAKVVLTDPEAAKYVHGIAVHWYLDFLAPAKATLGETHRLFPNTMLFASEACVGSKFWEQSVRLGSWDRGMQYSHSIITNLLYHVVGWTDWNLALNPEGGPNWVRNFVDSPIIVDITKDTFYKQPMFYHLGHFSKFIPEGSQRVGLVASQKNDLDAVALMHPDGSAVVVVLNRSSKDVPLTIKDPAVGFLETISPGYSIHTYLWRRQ
In short: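 Micellar buffer (176 mM K2HPO4/50 mM citric acid, pH 4.7; 0.32 mM triton, 0.37 mol % PS) holding 10 nM GCase and 100 nM saposin C, pre-incubated with compound 30 min at room temperature. Substrate final 2 mM before mixing; 15 min reaction, glycine pH 12.5 stop, fluorescence 365/440 nm. Screened at 1.0 and 0.1 μM; 8-point, 3-fold dose response.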

| Structure (SMILES) | solubility [1] | activation at 0.1 µM [2] | activation at 1 µM [2] |
| --- | --- | --- | --- |
| Cc1cc(-c2cccc3ncsc23)nc2c(C(=O)NC(C3CC3)C(F)(F)F)ncn12 (stereo not drawn) [IV-48] | 0.4 µg/mL (≈ 0.927 µM) | 10 to 20% | > 60% |
| Cc1cc(-c2cnsc2)nc2c(C(=O)NC(C)(C)C)ncn12 [IV-55] | 8.2 µg/mL (≈ 26 µM) | < 10% | > 60% |
| COc1cc(F)cc(-c2cc(C)n3cnc(C(=O)N[C@@H](C)C4CC4)c3n2)c1 [IV-56] | 3.7 µg/mL (≈ 10 µM) | > 20% | > 60% |
| COc1cc(F)cc(-c2cc(C)n3cnc(C(=O)NC(C)C(F)(F)F)c3n2)c1 (stereo not drawn) [IV-57] | 1.2 µg/mL (≈ 3.03 µM) | > 20% | > 60% |
| COc1cc(F)cc(-c2cc(C)n3cnc(C(=O)N[C@H](C)C(F)(F)F)c3n2)c1 [IV-58] | 2.3 µg/mL (≈ 5.8 µM) | > 20% | > 60% |
| COc1cc(F)cc(-c2cc(C)n3cnc(C(=O)N[C@@H](C)C(F)(F)F)c3n2)c1 [IV-59] | 2.2 µg/mL (≈ 5.55 µM) | > 20% | > 60% |
| Cc1cc(-c2cccc(-c3ncco3)c2)nc2c(C(=O)NC(C3CC3)C(F)(F)F)ncn12 (stereo not drawn) [IV-60] | 2.3 µg/mL (≈ 5.21 µM) | > 20% | > 60% |
| COc1c(F)cccc1-c1cc(C)n2cnc(C(=O)N[C@@H](C)C3CC3)c2n1 [IV-62] | 16 µg/mL (≈ 43.4 µM) | < 10% | > 60% |
| COc1c(F)cccc1-c1cc(C)n2cnc(C(=O)NC(C3CC3)C(F)(F)F)c2n1 (stereo not drawn) [IV-63] | 3.1 µg/mL (≈ 7.34 µM) | 10 to 20% | > 60% |
| COc1c(F)cccc1-c1cc(C)n2cnc(C(=O)NC(C)C(F)(F)F)c2n1 (stereo not drawn) [IV-64] | 21 µg/mL (≈ 53 µM) | < 10% | 30 to 60% |
| COc1c(C#N)cccc1-c1cc(C)n2cnc(C(=O)N[C@@H](C)C3CC3)c2n1 [IV-65] | 15.6 µg/mL (≈ 41.6 µM) | < 10% | < 30% |
| COc1c(C#N)cccc1-c1cc(C)n2cnc(C(=O)NC(C)C(F)(F)F)c2n1 (stereo not drawn) [IV-66] | 23.9 µg/mL (≈ 59.3 µM) | < 10% | < 30% |
| COc1cccc(-c2cc(C)n3cnc(C(=O)N[C@@H](C)C4CC4)c3n2)c1C#N [IV-68] | 0.7 µg/mL (≈ 1.86 µM) | > 20% | > 60% |
| COc1ccc(-c2cc(C)n3cnc(C(=O)NC(C4CC4)C(F)(F)F)c3n2)cc1F (stereo not drawn) [IV-70] | 1.5 µg/mL (≈ 3.55 µM) | > 20% | > 60% |
| COc1ccc(F)cc1-c1cc(C)n2cnc(C(=O)NC(C3CC3)C(F)(F)F)c2n1 (stereo not drawn) [IV-71] | 1.5 µg/mL (≈ 3.55 µM) | > 20% | > 60% |
| Cc1cc(-c2ccc3ocnc3c2)nc2c(C(=O)NC(C)C(F)(F)F)ncn12 (stereo not drawn) [IV-73] | 2.1 µg/mL (≈ 5.39 µM) | > 20% | > 60% |
| Cc1cc(-n2ccc(Cl)n2)nc2c(C(=O)NC(C)C(F)(F)F)ncn12 (stereo not drawn) [IV-74] | 4.2 µg/mL (≈ 11.3 µM) | < 10% | 30 to 60% |
| Cc1cc(-c2ccc3c(c2)OCO3)nc2c(C(=O)NC(C3CC3)C(F)(F)F)ncn12 (stereo not drawn) [IV-75] | 0.5 µg/mL (≈ 1.2 µM) | > 20% | > 60% |
| Cc1cc(-c2ccc3c(c2)OCO3)nc2c(C(=O)NC(C)C(F)(F)F)ncn12 (stereo not drawn) [IV-76] | 1.2 µg/mL (≈ 3.06 µM) | > 20% | > 60% |
| Cc1cc(-c2ccc3c(c2)OCO3)nc2c(C(=O)N[C@H](C)C(F)(F)F)ncn12 [IV-77] | 1.3 µg/mL (≈ 3.31 µM) | > 20% | > 60% |
| Cc1cc(-c2ccc3c(c2)OCO3)nc2c(C(=O)N[C@@H](C)C(F)(F)F)ncn12 [IV-78] | 3.3 µg/mL (≈ 8.41 µM) | > 20% | > 60% |
| Cc1cc(-c2cccc(-c3ncncn3)c2)nc2c(C(=O)NC(C3CC3)C(F)(F)F)ncn12 (stereo not drawn) [IV-79] | 0.5 µg/mL (≈ 1.1 µM) | > 20% | > 60% |

The next lines start with the values.

| solubility [1] | activation at 0.1 µM [2] | activation at 1 µM [2] | Structure (SMILES) |
| --- | --- | --- | --- |
| 0.8 µg/mL (≈ 2.04 µM) | > 20% | > 60% | Cc1cc(-c2ccc(F)cc2)nc2c(C(=O)NC(C3CC3)C(F)(F)F)ncn12 (stereo not drawn) [IV-44] |
| 2.5 µg/mL (≈ 6.37 µM) | > 20% | > 60% | Cc1cc(-c2ccc(F)cc2)nc2c(C(=O)N[C@H](C3CC3)C(F)(F)F)ncn12 [IV-45] |
| 0.8 µg/mL (≈ 2.04 µM) | > 20% | > 60% | Cc1cc(-c2ccc(F)cc2)nc2c(C(=O)N[C@@H](C3CC3)C(F)(F)F)ncn12 [IV-46] |
| 3.8 µg/mL (≈ 8.81 µM) | < 10% | 30 to 60% | Cc1cc(-c2cccc3scnc23)nc2c(C(=O)NC(C3CC3)C(F)(F)F)ncn12 (stereo not drawn) [IV-47] |
| 0.6 µg/mL (≈ 1.39 µM) | > 20% | > 60% | Cc1cc(-c2ccc3scnc3c2)nc2c(C(=O)NC(C3CC3)C(F)(F)F)ncn12 (stereo not drawn) [IV-49] |
| 1.5 µg/mL (≈ 3.93 µM) | 10 to 20% | > 60% | Cc1cc(-c2nccs2)nc2c(C(=O)NC(C3CC3)C(F)(F)F)ncn12 (stereo not drawn) [IV-50] |
| 2.1 µg/mL (≈ 5.51 µM) | > 20% | > 60% | Cc1cc(-c2cnsc2)nc2c(C(=O)NC(C3CC3)C(F)(F)F)ncn12 (stereo not drawn) [IV-51] |
| 15.4 µg/mL (≈ 40.4 µM) | 10 to 20% | > 60% | Cc1cc(-c2cnsc2)nc2c(C(=O)N[C@H](C3CC3)C(F)(F)F)ncn12 [IV-52] |
| 13.2 µg/mL (≈ 34.6 µM) | 10 to 20% | > 60% | Cc1cc(-c2cnsc2)nc2c(C(=O)N[C@@H](C3CC3)C(F)(F)F)ncn12 [IV-53] |
| 13.5 µg/mL (≈ 31.4 µM) | < 10% | 30 to 60% | COc1c(C#N)cccc1-c1cc(C)n2cnc(C(=O)NC(C3CC3)C(F)(F)F)c2n1 (stereo not drawn) [IV-67] |
| 1.3 µg/mL (≈ 3.03 µM) | > 20% | > 60% | COc1cccc(-c2cc(C)n3cnc(C(=O)NC(C4CC4)C(F)(F)F)c3n2)c1C#N (stereo not drawn) [IV-69] |
| 1.1 µg/mL (≈ 2.65 µM) | > 20% | > 60% | Cc1cc(-c2ccc3ocnc3c2)nc2c(C(=O)NC(C3CC3)C(F)(F)F)ncn12 (stereo not drawn) [IV-72] |
| 3.7 µg/mL (≈ 8.87 µM) | > 20% | > 60% | Cc1cc(-c2ccc(F)cc2C#N)nc2c(C(=O)NC(C3CC3)C(F)(F)F)ncn12 (stereo not drawn) [IV-80] |
| 1 µg/mL (≈ 2.57 µM) | 10 to 20% | > 60% | Cc1cc(-c2cc(C#N)co2)nc2c(C(=O)NC(C3CC3)C(F)(F)F)ncn12 (stereo not drawn) [IV-81] |
| 1.9 µg/mL (≈ 4.88 µM) | > 20% | > 60% | Cc1cc(-c2occc2C#N)nc2c(C(=O)NC(C3CC3)C(F)(F)F)ncn12 (stereo not drawn) [IV-82] |
| 1.2 µg/mL (≈ 3.29 µM) | > 20% | > 60% | Cc1cc(-c2ccco2)nc2c(C(=O)NC(C3CC3)C(F)(F)F)ncn12 (stereo not drawn) [IV-83] |
| 3.2 µg/mL (≈ 8.78 µM) | > 20% | > 60% | Cc1cc(-c2ccoc2)nc2c(C(=O)NC(C3CC3)C(F)(F)F)ncn12 (stereo not drawn) [IV-84] |
| 5.9 µg/mL (≈ 14.6 µM) | > 20% | > 60% | Cc1cc(-c2cc(C#N)cs2)nc2c(C(=O)NC(C3CC3)C(F)(F)F)ncn12 (stereo not drawn) [IV-85] |
| 3.6 µg/mL (≈ 8.88 µM) | > 20% | > 60% | Cc1cc(-c2ccc(C#N)s2)nc2c(C(=O)NC(C3CC3)C(F)(F)F)ncn12 (stereo not drawn) [IV-86] |
